Source: patent US9808445B2, “Factor IXa inhibitors” (Merck Sharp & Dohme Corp., priority 2014, dated 2017)

Target: human factor IXa (Homo sapiens (Human), UniProt P00740)
Test: Determination of inhibitory activity against factor IXa (fluorogenic substrate SPECTROFLUOR FIXa)
Format: biochemical
Settings: Factor IXa enzyme assay human
Protocol: Inhibitory activity against factor IXa was tested using the substrate SPECTROFLUOR FIXa (american diagnostica inc.; 500 West Avenue, Stamford, Conn. 06902 USA; Pr. No. 299F) and human factor IXa (american diagnostica inc.; Pr. No. 449b). Test substances were dissolved in buffer A (50 mM α,α,α-tris (hydroxymethyl) methylamine (Tris), 100 mM NaCl, 5 mM CaCl2, 15% (v/v) ethylene glycol, pH 8.0) were mixed with factor IXa (0.1 μg/ml final concentration). The enzyme reaction was started by addition of SPECTROFLUOR FIXa (100 μM final concentration). After incubation for 60 minutes at room temperature, the reaction was stopped by the addition of 20% (v/v) acetic acid solution, and then the fluorescence value was measured (Excitation Wavelength: 355 nm, Emission Wavelength; 460 nm) in a microtiter plate reader (ARVO 1420 Multilabel Counter; PerkinElmer).
The IC50 was calculated from a dilution series of the test substance with the aid of the software, Symyx Assay Explorer (Symyx Technologies, Inc.).

Sequence of human factor IXa (P00740 227-461): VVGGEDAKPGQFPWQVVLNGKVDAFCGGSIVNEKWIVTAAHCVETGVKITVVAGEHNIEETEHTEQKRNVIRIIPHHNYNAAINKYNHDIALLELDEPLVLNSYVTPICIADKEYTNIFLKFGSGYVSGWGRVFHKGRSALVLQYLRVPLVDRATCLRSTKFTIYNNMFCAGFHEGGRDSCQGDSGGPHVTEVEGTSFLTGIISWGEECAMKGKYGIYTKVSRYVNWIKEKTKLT
Sequence of human factor IXa (P00740 47-191 partner): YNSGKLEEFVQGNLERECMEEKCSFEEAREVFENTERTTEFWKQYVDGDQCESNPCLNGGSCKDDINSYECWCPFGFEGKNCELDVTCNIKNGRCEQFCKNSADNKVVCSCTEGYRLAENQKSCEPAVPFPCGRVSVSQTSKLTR

Row | IC50 | SMILES
1 | ≤ 100 nM | Cc1ncn(-c2ccc(C(=O)NC3C4CCC3N(c3ncc(Cl)c5c(N)noc35)C4)c(Cl)c2)n1 (single isomer, unassigned) [Example 7.1, N-((1S*,4S*,7R*)-2-(3-Amino-4-chloroisoxazolo[5,4-c]pyridin-7-yl)-2-azabicyclo[2.2.1]heptan-7-yl)-2-chloro-4-(3-methyl-1H-1,2,4-triazol-1-yl)benzamide]
2 | ≤ 100 nM | Nc1noc2c(N3C[C@@H]4CC[C@H]3[C@@H]4NC(=O)c3ccc(-n4cnnc4)cc3Cl)ccc(Cl)c12 (relative stereo) [Example 5, N-((1S*,4S*,7R*)-2-(3-Amino-4-chlorobenzo[d]isoxazol-7-yl)-2-azabicyclo[2.2.1]heptan-7-yl)-2-chloro-4-(4H-1,2,4-triazol-4-yl)benzamide]
3 | ≤ 100 nM | Cn1ncn(-c2ccc(C(=O)N[C@@H]3[C@H]4CC[C@@H]3N(c3ncc(Cl)c5c(N)noc35)C4)c(Cl)c2)c1=O (relative stereo) [Example 28, N-((1S*,4S*,7R*)-2-(3-Amino-4-chloroisoxazolo[5,4-c]pyridin-7-yl)-2-azabicyclo[2.2.1]heptan-7-yl)-2-chloro-4-(1-methyl-5-oxo-1,5-dihydro-4H-1,2,4-triazol-4-yl)benzamide]
4 | ≤ 100 nM | Nc1noc2c(N3C[C@@H]4CC[C@H]3[C@@H]4NC(=O)c3ccc(-n4cnnc4C(F)F)cc3Cl)ncc(Cl)c12 (relative stereo) [Example 16, N-((1S*,4S*,7R*)-2-(3-Amino-4-chloroisoxazolo[5,4-c]pyridin-7-yl)-2-azabicyclo[2.2.1]heptan-7-yl)-2-chloro-4-(3-(difluoromethyl)-4H-1,2,4-triazol-4-yl)benzamide]
5 | ≤ 100 nM | Cc1cc2c(N)noc2c(N2C[C@@H]3CC[C@H]2[C@@H]3NC(=O)c2ccc(-c3cnc(C#N)nc3)cc2Cl)n1 (relative stereo) [Example 17, N-((1S*,4S*,7R*)-2-(3-Amino-5-methylisoxazolo[5,4-c]pyridin-7-yl)-2-azabicyclo[2.2.1]heptan-7-yl)-2-chloro-4-(2-cyanopyrimidin-5-yl)benzamide]
6 | ≤ 100 nM | Nc1noc2c(N3C[C@@H]4CC[C@H]3[C@@H]4NC(=O)c3ccc(-c4ccc(=O)n(C(F)F)c4)cc3Cl)ncc(Cl)c12 (relative stereo) [Example 19, N-((1S*,4S*,7R*)-2-(3-Amino-4-chloroisoxazolo[5,4-c]pyridin-7-yl)-2-azabicyclo[2.2.1]heptan-7-yl)-2-chloro-4-(1-(difluoromethyl)-6-oxo-1,6-dihydropyridin-3-yl)benzamide]
7 | ≤ 100 nM | Nc1noc2c(N3C[C@@H]4CC[C@H]3[C@@H]4NC(=O)c3ccc(-n4cnc5ccccc54)cc3Cl)ncc(Cl)c12 (relative stereo) [Example 21, N-((1S*,4S*,7R*)-2-(3-Amino-4-chloroisoxazolo[5,4-c]pyridin-7-yl)-2-azabicyclo[2.2.1]heptan-7-yl)-4-(1H-benzo[d]imidazol-1-yl)-2-chlorobenzamide]
8 | ≤ 100 nM | Cc1cc2c(N)noc2c(N2CC3CCC2C3NC(=O)c2ccc(-n3cnc(C)n3)cc2Cl)n1 (single isomer, unassigned) [Example 11.2, N-((1S*,4S*,7R*)-2-(3-Amino-5-methylisoxazolo[5,4-c]pyridin-7-yl)-2-azabicyclo[2.2.1]heptan-7-yl)-2-chloro-4-(3-methyl-1H-1,2,4-triazol-1-yl)benzamide]
9 | ≤ 100 nM | Nc1noc2c(N3C[C@@H]4CC[C@H]3[C@@H]4NC(=O)c3ccc(-c4ccc5nncn5c4)cc3Cl)ncc(Cl)c12 (relative stereo) [Example 20, 4-([1,2,4]Triazolo[4,3-a]pyridin-6-yl)-N-((1S*,4S*,7R*)-2-(3-amino-4-chloroisoxazolo[5,4-c]pyridin-7-yl)-2-azabicyclo[2.2.1]heptan-7-yl)-2-chlorobenzamide]
10 | 100 to 1000 nM | Nc1noc2c(N3CC4CCC3C4NC(=O)c3ccc(-n4cncn4)cc3Cl)ncc(Cl)c12 (single isomer, unassigned) [Example 8.2, N-((1S*,4S*,7R*)-2-(3-Amino-4-chloroisoxazolo[5,4-c]pyridin-7-yl)-2-azabicyclo[2.2.1]heptan-7-yl)-2-chloro-4-(1H-1,2,4-triazol-1-yl)benzamide]
11 | ≤ 100 nM | Cc1ncn(-c2ccc(C(=O)N[C@@H]3[C@H]4CC[C@@H]3N(c3nccc5c(N)noc35)C4)c(Cl)c2)n1 (relative stereo) [Example 2, N-((1S*,4S*,7R*)-2-(3-Aminoisoxazolo[5,4-c]pyridin-7-yl)-2-azabicyclo[2.2.1]heptan-7-yl)-2-chloro-4-(3-methyl-1H-1,2,4-triazol-1-yl)benzamide]
12 | ≤ 100 nM | Cn1nc(-c2ccc(C(=O)N[C@@H]3[C@H]4CC[C@@H]3N(c3ncc(Cl)c5c(N)noc35)C4)c(Cl)c2)ccc1=O (relative stereo) [Example 24, N-((1S*,4S*,7R*)-2-(3-Amino-4-chloroisoxazolo[5,4-c]pyridin-7-yl)-2-azabicyclo[2.2.1]heptan-7-yl)-2-chloro-4-(1-methyl-6-oxo-1,6-dihydropyridazin-3-yl)benzamide]
13 | ≤ 100 nM | Nc1noc2c(N3C[C@@H]4CC[C@H]3[C@@H]4NC(=O)c3ccc(-n4cnnc4)cc3Cl)ncc(Cl)c12 (relative stereo) [Example 6, N-((1S*,4S*,7R*)-2-(3-Amino-4-chloroisoxazolo[5,4-c]pyridin-7-yl)-2-azabicyclo[2.2.1]heptan-7-yl)-2-chloro-4-(4H-1,2,4-triazol-4-yl)benzamide]
14 | ≤ 100 nM | Nc1noc2c(N3C[C@@H]4CC[C@H]3[C@@H]4NC(=O)c3ccc(-c4ccnnc4)cc3Cl)ncc(Cl)c12 (relative stereo) [Example 12, N-((1S*,4S*,7R*)-2-(3-Amino-4-chloroisoxazolo[5,4-c]pyridin-7-yl)-2-azabicyclo[2.2.1]heptan-7-yl)-2-chloro-4-(pyridazin-4-yl)benzamide]
15 | ≤ 100 nM | Cc1ncn(-c2ccc(C(=O)N[C@@H]3[C@H]4CC[C@@H]3N(c3cc(Cl)cc5c(N)noc35)C4)c(Cl)c2)n1 (relative stereo) [Example 4, N-((1S*,4S*,7R*)-2-(3-Amino-5-chlorobenzo[d]isoxazol-7-yl)-2-azabicyclo[2.2.1]heptan-7-yl)-2-chloro-4-(3-methyl-1H-1,2,4-triazol-1-yl)benzamide]
16 | ≤ 100 nM | Nc1noc2c(N3C[C@@H]4CC[C@H]3[C@@H]4NC(=O)c3ccc(-n4cnnc4)cc3)ncc(Cl)c12 (relative stereo) [Example 13, N-((1S*,4S*,7R*)-2-(3-Amino-4-chloroisoxazolo[5,4-c]pyridin-7-yl)-2-azabicyclo[2.2.1]heptan-7-yl)-4-(4H-1,2,4-triazol-4-yl)benzamide]
17 | ≤ 100 nM | COc1ncc(-c2ccc(C(=O)N[C@@H]3[C@H]4CC[C@@H]3N(c3ncc(Cl)c5c(N)noc35)C4)c(Cl)c2)cn1 (relative stereo) [Example 10, N-((1S*,4S*,7R*)-2-(3-Amino-4-chloroisoxazolo[5,4-c]pyridin-7-yl)-2-azabicyclo[2.2.1]heptan-7-yl)-2-chloro-4-(2-methoxypyrimidin-5-yl)benzamide]
18 | ≤ 100 nM | Cn1cc(-c2ccc(C(=O)N[C@@H]3[C@H]4CC[C@@H]3N(c3ncc(Cl)c5c(N)noc35)C4)c(Cl)c2)ccc1=O (relative stereo) [Example 18, N-((1S*,4S*,7R*)-2-(3-Amino-4-chloroisoxazolo[5,4-c]pyridin-7-yl)-2-azabicyclo[2.2.1]heptan-7-yl)-2-chloro-4-(1-methyl-6-oxo-1,6-dihydropyridin-3-yl)benzamide]
